Results taken from patent publication US20230416261A1, “ETHANEDIAMINE-HETEROCYCLE DERIVATIVES AS INHIBITORS OF PROTEIN ARGININE METHYLTRANSFERASES” (Board of Regents, The University of Texas System, priority 2021, published 2023).

Experiments:
PRMT1 = PRMT1 (Homo sapiens, UniProt Q99873); assay: PRMT1 RKO Cellular Target Engagement Assay (In-Cell Western, asymmetric di-methyl arginine); format: cell-based; conditions: RKO cells, 48 hr compound incubation; read-out: RKO IC50 (PRMT-1 Target Engagement)
Chain of PRMT1 (Q99873 whole entry): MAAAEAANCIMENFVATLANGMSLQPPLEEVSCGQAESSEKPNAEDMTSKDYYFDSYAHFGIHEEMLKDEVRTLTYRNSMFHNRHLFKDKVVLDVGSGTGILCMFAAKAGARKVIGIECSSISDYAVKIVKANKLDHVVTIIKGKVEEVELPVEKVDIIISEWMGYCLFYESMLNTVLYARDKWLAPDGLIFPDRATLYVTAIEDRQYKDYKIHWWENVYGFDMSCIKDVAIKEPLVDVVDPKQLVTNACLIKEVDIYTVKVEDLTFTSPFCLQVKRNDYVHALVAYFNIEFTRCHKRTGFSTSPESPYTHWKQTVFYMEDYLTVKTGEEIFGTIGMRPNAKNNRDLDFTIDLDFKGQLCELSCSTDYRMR
In short: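 RKO cells (1,000/well) received 1:3 serially diluted compound for 48 h at 37 °C, then were fixed, permeabilised and immunostained for asymmetric di-methyl arginine by In-Cell Western. The 800 nm antibody signal was normalised to CellTag 700 nm; IC50 from four-parameter logistic fit.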

PATC53 cells = assay: PATC53 Long Term Phenotypic Assay (14 days, crystal violet viability); format: cell-based; conditions: 336 h
In short: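 Cells seeded at 250 per well, allowed 24 h to settle, then treated with 1:3 serial dilutions of compound for 14 days at 37 °C, 5% CO2. Viability measured by crystal violet staining, solubilised in 10% HOAc, absorbance 590 nm; IC50 from four-parameter logistic fit.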

Row | SMILES | IC50 (PRMT1) [nM] | IC50 (PATC53 cells) [nM]
1 | COCC1(COC)CCC(c2c(CN(C)CCN)nn3c2CN(C(=O)C(C)(C)C)CC3)CC1 [Example 2, 1-(2-(((2-aminoethyl)(methyl)amino)methyl)-3-(4,4-bis(methoxymethyl)cyclohexyl)-6,7-dihydropyrazolo[1,5-a]pyrazin-5(4H)-yl)-2,2-dimethylpropan-1-one] | 311 | 152
2 | CNCCN(C)Cc1nn2c(c1C1CCC(COC)(COC)CC1)CN(C(=O)C1CCC1)CC2 [Example 1, (3-(4,4-Bis(methoxymethyl)cyclohexyl)-2-((methyl(2-(methylamino)ethyl)amino)methyl)-6,7-dihydropyrazolo[1,5-a]pyrazin-5(4H)-yl)(cyclobutyl)methanone] | 138 | 45
